According to patent publication US12435044B2, “Pyridazinone herbicides and pyridazinone intermediates used to prepare a herbicide” (FMC Corporation, priority 2018, dated 2025):

Tests used:
Assay type in all cases: in vivo
[1] = tested on: barnyardgrass (Echinochloa crus-galli); assay: Test C pre-/postemergence greenhouse test; conditions: scale 0 to 100
Description: (§1) Seeds of plant species selected from blackgrass (Alopecurus myosuroides), ryegrass, Italian (Lolium multiflorum), wheat, winter (winter wheat, Triticum aestivum), galium (catchweed bedstraw, Galium aparine), corn (Zea mays), crabgrass, large (Digitaria sanguinalis), foxtail, giant (Setaria faberii), johnsongrass (Sorghum halepense), lambsquarters (Chenopodium album), morningglory (Ipomoea coccinea), nutsedge, yellow (Cyperus esculentus), pigweed (Amaranthus retroflexus), ragweed (common ragweed, Ambrosia elatior), soybean (Glycine max), barnyardgrass (Echinochloa crus-galli), oilseed rape (Brassica napus), waterhemp (common waterhemp, Amaranthus rudis), pigweed, palmer (Amaranthus palmeri), kochia (Kochia scoparia), oat, wild (Avena fatua), surinam grass (Brachiaria decumbens), windgrass (Apera spica-venti), poinsettia, wild (Euphorbia heterophylla) and velvetleaf (Abutilon theophrasti) were planted into a silt loam soil and treated preemergence with test chemicals formulated in a non-phytotoxic solvent mixture which included a surfactant.
(§2) At the same time, plants selected from these crop and weed species and also chickweed (common chickweed, Stellaria media), buckwheat, wild (Polygonum convolvulus), mustard, wild (Sinapis arvensis), field poppy (Papaver rhoeas), field violet (Viola arvensis), nightshade (eastern black nightshade, Solanum ptycanthum), speedwell (bird's-eye speedwell, Veronica persica), horseweed (Conyza canadensis), cutleaf geranium (Geranium dissectum), and Canada thistle (Cirsium arvense) were planted in pots containing Redi-Earth® planting medium (Scotts Company, 14111 Scottslawn Road, Marysville, Ohio 43041) comprising spaghnum peat moss, vermiculite, wetting agent and starter nutrients and treated with postemergence applications of test chemicals formulated in the same manner. Plants ranged in height from 2 to 18 cm (1- to 4-leaf stage) for postemergence treatments. Treated plants and controls were maintained in a greenhouse for 13 to 21 d, after which time all species were compared to controls and visually evaluated. Plant response ratings, summarized in Table C-1 (postemergence) and C-2 (preemergence), are based on a scale of 0 to 100 where 0 is no effect and 100 is complete control. A dash (-) response means no test result.

corn (Zea mays) = assay: Test C pre-/postemergence greenhouse test; conditions: scale 0 to 100
Description: as §1, §2

[2] = tested on: galium (catchweed bedstraw, Galium aparine); assay: Test C pre-/postemergence greenhouse test; conditions: scale 0 to 100
Description: as §1, §2

[3] = tested on: johnsongrass (Sorghum halepense); assay: Test C pre-/postemergence greenhouse test; conditions: scale 0 to 100
Description: as §1, §2

kochia (Kochia scoparia) = assay: Test C pre-/postemergence greenhouse test; conditions: scale 0 to 100
Description: as §1, §2

[4] = tested on: nutsedge, yellow (Cyperus esculentus); assay: Test C pre-/postemergence greenhouse test; conditions: scale 0 to 100
Description: as §1, §2

[5] = tested on: pigweed, palmer (Amaranthus palmeri); assay: Test C pre-/postemergence greenhouse test; conditions: scale 0 to 100
Description: as §1, §2

[6] = tested on: surinam grass (Brachiaria decumbens); assay: Test C pre-/postemergence greenhouse test; conditions: scale 0 to 100
Description: as §1, §2

[7] = tested on: waterhemp (common waterhemp, Amaranthus rudis); assay: Test C pre-/postemergence greenhouse test; conditions: scale 0 to 100
Description: as §1, §2

[8] = tested on: barnyardgrass (Echinochloa crus-galli); assay: Test C flooded paddy test; conditions: Flood, scale 0 to 100
[9] = tested on: ducksalad (Heteranthera limosa); assay: Test C flooded paddy test; conditions: Flood, scale 0 to 100
[10] = tested on: rice (transplanted and water seeded, Oryza sativa); assay: Test C flooded paddy test; conditions: Flood, scale 0 to 100

Cc1cc(Cl)c2ccccc2c1-c1c(O)c(Cl)nn(C)c1=O [Cpd. No. 65]
Plant response rating, Barnyardgrass ([1]; Postemergence, 16 g ai/ha): 80 | Plant response rating, Barnyardgrass ([1]; Postemergence, 31 g ai/ha): 85 | Plant response rating, Barnyardgrass ([1]; Postemergence, 62 g ai/ha): 100 | Plant response rating, Barnyardgrass ([1]; Postemergence, 125 g ai/ha): 100 | Plant response rating, Barnyardgrass ([1]; Preemergence, 31 g ai/ha): 20 | Plant response rating, Barnyardgrass ([1]; Preemergence, 61 g ai/ha): 10 | Plant response rating, Barnyardgrass ([1]; Preemergence, 62 g ai/ha): 60 | Plant response rating, Barnyardgrass ([1]; Preemergence, 125 g ai/ha): 75 | Plant response rating, Corn (corn (Zea mays); Postemergence, 16 g ai/ha): 30 | Plant response rating, Corn (corn (Zea mays); Postemergence, 31 g ai/ha): 40 | Plant response rating, Corn (corn (Zea mays); Postemergence, 62 g ai/ha): 65 | Plant response rating, Corn (corn (Zea mays); Postemergence, 125 g ai/ha): 75 | Plant response rating, Corn (corn (Zea mays); Preemergence, 31 g ai/ha): 0 | Plant response rating, Corn (corn (Zea mays); Preemergence, 61 g ai/ha): 0 | Plant response rating, Corn (corn (Zea mays); Preemergence, 62 g ai/ha): 5 | Plant response rating, Corn (corn (Zea mays); Preemergence, 125 g ai/ha): 15 | Plant response rating, Galium ([2]; Postemergence, 16 g ai/ha): 90 | Plant response rating, Galium ([2]; Postemergence, 31 g ai/ha): 90 | Plant response rating, Galium ([2]; Postemergence, 62 g ai/ha): 95 | Plant response rating, Galium ([2]; Postemergence, 125 g ai/ha): 98 | Plant response rating, Galium ([2]; Preemergence, 31 g ai/ha): 85 | Plant response rating, Galium ([2]; Preemergence, 61 g ai/ha): 0 | Plant response rating, Galium ([2]; Preemergence, 62 g ai/ha): 98 | Plant response rating, Galium ([2]; Preemergence, 125 g ai/ha): 100 | Plant response rating, Johnsongrass ([3]; Postemergence, 16 g ai/ha): 20 | Plant response rating, Johnsongrass ([3]; Postemergence, 31 g ai/ha): 40 | Plant response rating, Johnsongrass ([3]; Postemergence, 62 g ai/ha): 75 | Plant response rating, Johnsongrass ([3]; Postemergence, 125 g ai/ha): 85 | Plant response rating, Johnsongrass ([3]; Preemergence, 31 g ai/ha): 5 | Plant response rating, Johnsongrass ([3]; Preemergence, 61 g ai/ha): 0 | Plant response rating, Johnsongrass ([3]; Preemergence, 62 g ai/ha): 5 | Plant response rating, Johnsongrass ([3]; Preemergence, 125 g ai/ha): 20 | Plant response rating, Kochia (kochia (Kochia scoparia); Postemergence, 16 g ai/ha): 40 | Plant response rating, Kochia (kochia (Kochia scoparia); Postemergence, 31 g ai/ha): 55 | Plant response rating, Kochia (kochia (Kochia scoparia); Postemergence, 62 g ai/ha): 65 | Plant response rating, Kochia (kochia (Kochia scoparia); Postemergence, 125 g ai/ha): 75 | Plant response rating, Kochia (kochia (Kochia scoparia); Preemergence, 31 g ai/ha): 70 | Plant response rating, Kochia (kochia (Kochia scoparia); Preemergence, 61 g ai/ha): 20 | Plant response rating, Kochia (kochia (Kochia scoparia); Preemergence, 62 g ai/ha): 85 | Plant response rating, Kochia (kochia (Kochia scoparia); Preemergence, 125 g ai/ha): 90 | Plant response rating, Nutsedge, Yellow ([4]; Postemergence, 16 g ai/ha): 50 | Plant response rating, Nutsedge, Yellow ([4]; Postemergence, 31 g ai/ha): 75 | Plant response rating, Nutsedge, Yellow ([4]; Postemergence, 62 g ai/ha): 65 | Plant response rating, Nutsedge, Yellow ([4]; Postemergence, 125 g ai/ha): 95 | Plant response rating, Nutsedge, Yellow ([4]; Preemergence, 31 g ai/ha): 75 | Plant response rating, Nutsedge, Yellow ([4]; Preemergence, 61 g ai/ha): 10 | Plant response rating, Nutsedge, Yellow ([4]; Preemergence, 62 g ai/ha): 75 | Plant response rating, Nutsedge, Yellow ([4]; Preemergence, 125 g ai/ha): 95 | Plant response rating, Pigweed, Palmer ([5]; Postemergence, 16 g ai/ha): 35 | Plant response rating, Pigweed, Palmer ([5]; Postemergence, 31 g ai/ha): 55 | Plant response rating, Pigweed, Palmer ([5]; Postemergence, 62 g ai/ha): 60 | Plant response rating, Pigweed, Palmer ([5]; Postemergence, 125 g ai/ha): 95 | Plant response rating, Pigweed, Palmer ([5]; Preemergence, 31 g ai/ha): 70 | Plant response rating, Pigweed, Palmer ([5]; Preemergence, 61 g ai/ha): 50 | Plant response rating, Pigweed, Palmer ([5]; Preemergence, 62 g ai/ha): 100 | Plant response rating, Pigweed, Palmer ([5]; Preemergence, 125 g ai/ha): 100 | Plant response rating, Surinam Grass ([6]; Postemergence, 16 g ai/ha): 90 | Plant response rating, Surinam Grass ([6]; Postemergence, 31 g ai/ha): 90 | Plant response rating, Surinam Grass ([6]; Postemergence, 62 g ai/ha): 95 | Plant response rating, Surinam Grass ([6]; Postemergence, 125 g ai/ha): 95 | Plant response rating, Surinam Grass ([6]; Preemergence, 31 g ai/ha): 55 | Plant response rating, Surinam Grass ([6]; Preemergence, 61 g ai/ha): 15 | Plant response rating, Surinam Grass ([6]; Preemergence, 62 g ai/ha): 70 | Plant response rating, Surinam Grass ([6]; Preemergence, 125 g ai/ha): 100 | Plant response rating, Waterhemp ([7]; Postemergence, 16 g ai/ha): 80 | Plant response rating, Waterhemp ([7]; Postemergence, 31 g ai/ha): 90 | Plant response rating, Waterhemp ([7]; Postemergence, 62 g ai/ha): 95 | Plant response rating, Waterhemp ([7]; Postemergence, 125 g ai/ha): 95 | Plant response rating, Waterhemp ([7]; Preemergence, 31 g ai/ha): 75 | Plant response rating, Waterhemp ([7]; Preemergence, 61 g ai/ha): 80 | Plant response rating, Waterhemp ([7]; Preemergence, 62 g ai/ha): 85 | Plant response rating, Waterhemp ([7]; Preemergence, 125 g ai/ha): 95 | Plant response rating, Barnyardgrass ([8]; 31 g ai/ha): 0 | Plant response rating, Barnyardgrass ([8]; 62 g ai/ha): 10 | Plant response rating, Barnyardgrass ([8]; 125 g ai/ha): 30 | Plant response rating, Barnyardgrass ([8]; 250 g ai/ha): 100 | Plant response rating, Ducksalad ([9]; 31 g ai/ha): 95 | Plant response rating, Ducksalad ([9]; 62 g ai/ha): 100 | Plant response rating, Ducksalad ([9]; 125 g ai/ha): 100 | Plant response rating, Ducksalad ([9]; 250 g ai/ha): 100 | Plant response rating, Rice, Transplanted ([10]; 31 g ai/ha): 0 | Plant response rating, Rice, Transplanted ([10]; 62 g ai/ha): 0 | Plant response rating, Rice, Transplanted ([10]; 125 g ai/ha): 20 | Plant response rating, Rice, Water Seeded ([10]; 125 g ai/ha): 10 | Plant response rating, Rice, Transplanted ([10]; 250 g ai/ha): 70
